Conditions: 323.14 K, Liquid, Vibrating tube method

CCCCCCC(=O)OCC(COC(=O)CCCCCC)(COC(=O)CCCCCC)COC(=O)CCCCCC [pentaerythritol tetraheptanoate]
Conditions	mass density [kg/m3]
13822 kPa	964.8
13850 kPa	964.7
13884 kPa	964.8
13912 kPa	964.9
13940 kPa	965
13969 kPa	964.9
14002 kPa	964.9
14031 kPa	964.9
14065 kPa	964.9
14094 kPa	964.9
14124 kPa	965
14159 kPa	964.9
14217 kPa	964.9
14254 kPa	965
14374 kPa	965
14411 kPa	965.1
14441 kPa	965.3
14478 kPa	965.2
14509 kPa	965.3
14540 kPa	965.3
14571 kPa	965.2
14777 kPa	965.3
14810 kPa	965.4
14849 kPa	965.5
14883 kPa	965.4
15305 kPa	965.7
15364 kPa	965.8
15393 kPa	965.8
15404 kPa	965.8
15412 kPa	965.8
15421 kPa	965.8
15430 kPa	965.8
15440 kPa	965.9
15449 kPa	965.8
15460 kPa	965.9
15468 kPa	966
15477 kPa	965.9
15488 kPa	965.8
15497 kPa	965.8
15506 kPa	965.9
15514 kPa	965.8
15525 kPa	965.8
15534 kPa	966
15543 kPa	965.9
15554 kPa	965.9
15563 kPa	965.9
15573 kPa	965.9
15582 kPa	966
15591 kPa	965.9
15600 kPa	966
15611 kPa	966
15620 kPa	965.9
15658 kPa	966.1
15667 kPa	966
15678 kPa	966
15687 kPa	966
15698 kPa	966.1
15716 kPa	966.2
15756 kPa	966.1
15853 kPa	966.1
15873 kPa	966.2
15882 kPa	966.1
15893 kPa	966.1
15912 kPa	966.1
15923 kPa	966
15933 kPa	966.2
15942 kPa	966.2
16746 kPa	966.7
16758 kPa	966.5
16768 kPa	966.7
16779 kPa	966.7
16792 kPa	966.6
16801 kPa	966.7
16813 kPa	966.6
16924 kPa	966.8
16935 kPa	966.8
16947 kPa	966.8
16960 kPa	966.9
16970 kPa	966.9
16981 kPa	966.8
16993 kPa	966.8
17004 kPa	966.9
17223 kPa	966.9
17236 kPa	967
17329 kPa	967.1
17342 kPa	967.1
17353 kPa	967.1
17364 kPa	967.1
17378 kPa	967.1
17401 kPa	967
17522 kPa	967
17659 kPa	967.3
17673 kPa	967.2
17685 kPa	967.2
17697 kPa	967.3
17708 kPa	967.1
17722 kPa	967.2
17734 kPa	967.3
17784 kPa	967.3
17798 kPa	967.3
17885 kPa	967.4
17912 kPa	967.5
17924 kPa	967.3
17938 kPa	967.4
17950 kPa	967.5
18001 kPa	967.4
18171 kPa	967.5
18199 kPa	967.5
18211 kPa	967.6
18226 kPa	967.6
18239 kPa	967.6
18252 kPa	967.6

From the NIST ThermoML archive (doi:10.1021/je060271a)
